Experimental data reported in patent US12065430B2, “Indazole compound or salt thereof” (TAIHO PHARMACEUTICAL CO., LTD., priority 2018, dated 2024).

Target: G12C K-Ras4B (1-169) (Homo sapiens (Human), UniProt P01116, G12C)
Assay: Test of compounds on whether to bind to KRASG12C (LC-MS compound binding rate)
Conditions: final compound concentration of 2 μM, 1 μM protein, 25° C. for 2 hours
Protocol: Test compounds were prepared in the form of a 10 mM DMSO solution.
K-Ras4B (1-169) and G12C K-Ras4B (1-169) proteins were mixed and diluted with a buffer (1×TBS, 0.1 mM TCEP) to prepare individual 1 μM protein solutions. A 10 mM test compound was diluted tenfold with DMSO to make a 1 mM solution, and then diluted fivefold with DMSO to make a 200 μM solution. The 200 μM solution was further diluted fivefold to make a 40 μM solution. When the final compound concentration was 10 μM, 1 μL of a 200 μM test compound was added to 19 μL of a 1 μM protein solution. When the final compound concentration was 2 μM, 1 μL of a 40 μM test compound was added to 19 μL of a 1 μM protein solution. The mixtures were stored in an incubator at 25° C. for 2 hours, and 80 μL of a 1×TBS solution containing 0.2% formic acid was added thereto to end the reaction, followed by LC-MS measurement. LC-MS measurement was performed using Xevo G2-S Q-Tof manufactured by Waters, and reverse-phase chromatography was performed with a desalting column. A mass spectrum of positive ions was obtained by electrospray. For a mass spectrum, a spectrum of a polyvalent ion was collectively converted to a molecular weight by using OpenLynx software by the MaxEnt technique, and a compound binding rate was obtained from the ratio of a signal intensity that corresponds to the molecular weight of a protein to a signal intensity that corresponds to the molecular weight of a compound binding to the protein.
By obtaining the compound binding rate for K-Ras4B (1-169) and the compound binding rate for G12C K-Ras4B (1-169) at the same time, information of the selectivity for G12C K-Ras4B (1-169) was obtained at the same time.
The test compounds were measured at their final compound concentration of 2 μM. […] Almost no compounds of the present invention binded to K-Ras4B (1-169). The “binding rate” (%) for each of K-Ras4B (1-169) and G12C K-Ras4B (1-169) refers to the ratio of the signal intensity of binded forms to the sum of the signal intensity of non-binded forms and the signal intensity of binded forms.

**Q.** With `C=CC(=O)N1CC(NC(=O)c2c(C)nc(CNc3n[nH]c4cc(Cl)c(C(C)(C)C)cc34)n2C(F)F)C1` [Example 21, N-(1-acryloylazetidin-3-yl)-2-(((5-(tert-butyl)-6-chloro-1H-indazol-3-yl)amino)methyl)-1-(difluoromethyl)-4-methyl-1H-imidazole-5-carboxamide] as the molecule, how does the “binding rate for G12C K-Ras4B (1-169)” value read?
**A.** B (a binding rate of 60% or more and less than 80% is rated “B,”)

**Q.** With `C=CC(=O)N1C[C@@H](F)[C@@H](NC(=O)c2c(C)nc(CNc3n[nH]c4cc(Cl)c(C(C)(C)C)cc34)n2C)C1` [Example 57, N-((3S,4R)-1-acryloyl-4-fluoropyrrolidin-3-yl)-2-(((5-(tert-butyl)-6-chloro-1H-indazol-3-yl)amino)methyl)-1,4-dimethyl-1H-imidazole-5-carboxamide] as the molecule, how does the “binding rate for G12C K-Ras4B (1-169)” value read?
**A.** C (a binding rate of 40% or more and less than 60% is rated “C,”)

**Q.** With `C=CC(=O)N1C[C@H](NC(=O)c2c(C)nc(CNc3n[nH]c4cc(Cl)c(C(C)(C)C)cc34)n2C)[C@@H](OC)C1` [Example 63, N-((3S,4S)-1-acryloyl-4-methoxypyrrolidin-3-yl)-2-(((5-(tert-butyl)-6-chloro-1H-indazol-3-yl)amino)methyl)-1,4-dimethyl-1H-imidazole-5-carboxamide] as the molecule, how does the “binding rate for G12C K-Ras4B (1-169)” value read?
**A.** B (a binding rate of 60% or more and less than 80% is rated “B,”)

**Q.** Which “binding rate for G12C K-Ras4B (1-169)” value does the source give for `C=CC(=O)N1CC(NC(=O)c2c(Cl)nc(CNc3n[nH]c4cc(Cl)c(C(C)(C)C)cc34)n2C2CC=CC2)C1` [Example 98, N-(1-acryloylazetidin-3-yl)-2-(((5-(tert-butyl)-6-chloro-1H-indazol-3-yl)amino)methyl)-4-chloro-1-(cyclopent-3-en-1-yl)-1H-imidazole-5-carboxamide] here?
**A.** A (a binding rate of 80% or more is rated “A,”)

**Q.** How did the “binding rate for G12C K-Ras4B (1-169)” value turn out when `C=CC(=O)N1CC(NC(=O)c2c(C)nc(CNc3n[nH]c4cc(Cl)c(C(C)(C)C)cc34)n2CC(F)(F)F)C1` [Example 22, N-(1-acryloylazetidin-3-yl)-2-(((5-(tert-butyl)-6-chloro-1H-indazol-3-yl)amino)methyl)-4-methyl-1-(2,2,2-trifluoroethyl)-1H-imidazole-5-carboxamide] was run?
**A.** B (a binding rate of 60% or more and less than 80% is rated “B,”)

**Q.** Which “binding rate for G12C K-Ras4B (1-169)” value does the source give for `COC/C=C/C(=O)N1CC(NC(=O)c2c(C)nc(CNc3n[nH]c4cc(Cl)c(C(C)(C)C)cc34)n2C(C)C)C1` [Example 85, (E)-2-(((5-(tert-butyl)-6-chloro-1H-indazol-3-yl)amino)methyl)-1-isopropyl-N-(1-(4-methoxybut-2-enoyl)azetidin-3-yl)-4-methyl-1H-imidazole-5-carboxamide] here?
**A.** C (a binding rate of 40% or more and less than 60% is rated “C,”)

**Q.** `C=CC(=O)N1CC(NC(=O)c2c(Cl)nc(CNc3n[nH]c4cc(Cl)c(C(C)(C)C)cc34)n2C2CN(C(C)=O)C2)C1` [Example 108, 1-(1-acetylazetidin-3-yl)-N-(1-acryloylazetidin-3-yl)-2-(((5-(tert-butyl)-6-chloro-1H-indazol-3-yl)amino)methyl)-4-chloro-1H-imidazole-5-carboxamide] was tested. Which “binding rate for G12C K-Ras4B (1-169)” value did it give?
**A.** A (a binding rate of 80% or more is rated “A,”)

**Q.** Which “binding rate for G12C K-Ras4B (1-169)” value does the source give for `C=CC(=O)N1C[C@@H](NC(=O)c2c(C)nc(CNc3n[nH]c4cc(Cl)c(C(C)(C)C)cc34)n2C)[C@@H]1C` (relative stereo) [Example 59, N-(trans-1-acryloyl-2-methylazetidin-3-yl)-2-(((5-(tert-butyl)-6-chloro-1H-indazol-3-yl)amino)methyl)-1,4-dimethyl-1H-imidazole-5-carboxamide] here?
**A.** B (a binding rate of 60% or more and less than 80% is rated “B,”)

**Q.** `C=CC(=O)N1C[C@@H](C)[C@@H](NC(=O)c2c(C(F)F)nc(CNc3n[nH]c4cc(Cl)c(C(C)(C)C)cc34)n2C)C1` [Example 71, N-((3R,4R)-1-acryloyl-4-methylpyrrolidin-3-yl)-2-(((5-(tert-butyl)-6-chloro-1H-indazol-3-yl)amino)methyl)-4-(difluoromethyl)-1-methyl-1H-imidazole-5-carboxamide] was tested. Which “binding rate for G12C K-Ras4B (1-169)” value did it give?
**A.** C (a binding rate of 40% or more and less than 60% is rated “C,”)

**Q.** With `C=CC(=O)N1CC(NC(=O)c2c(Cl)nc(CNc3n[nH]c4cc(Cl)c(C(C)(C)C)cc34)n2C2CCCCC2)C1` [Example 109, N-(1-acryloylazetidin-3-yl)-2-(((5-(tert-butyl)-6-chloro-1H-indazol-3-yl)amino)methyl)-4-chloro-1-cyclohexyl-1H-imidazole-5-carboxamide] as the molecule, how does the “binding rate for G12C K-Ras4B (1-169)” value read?
**A.** B (a binding rate of 60% or more and less than 80% is rated “B,”)

**Q.** For `C=CC(=O)N1C[C@H](NC(=O)c2c(C)nc(CNc3n[nH]c4cc(Cl)c(C(C)(C)C)cc34)n2C)[C@H](OC)C1` [Example 61, N-((3S,4R)-1-acryloyl-4-methoxypyrrolidin-3-yl)-2-(((5-(tert-butyl)-6-chloro-1H-indazol-3-yl)amino)methyl)-1,4-dimethyl-1H-imidazole-5-carboxamide], which “binding rate for G12C K-Ras4B (1-169)” value is on record?
**A.** B (a binding rate of 60% or more and less than 80% is rated “B,”)

**Q.** With `C=CC(=O)N1CC(NC(=O)c2c(Br)nc(CNc3n[nH]c4cc(Cl)c(C(C)(C)C)cc34)n2C)C1` [Example 27, N-(1-acryloylazetidin-3-yl)-4-bromo-2-(((5-(tert-butyl)-6-chloro-1H-indazol-3-yl)amino)methyl)-1-methyl-1H-imidazole-5-carboxamide] as the molecule, how does the “binding rate for G12C K-Ras4B (1-169)” value read?
**A.** A (a binding rate of 80% or more is rated “A,”)

**Q.** With `C=CC(=O)N1CC(NC(=O)c2c(-c3ccccc3)nc(CNc3n[nH]c4cc(Cl)c(C(C)(C)C)cc34)n2C)C1` [Reference Example 3, N-(1-acryloylazetidin-3-yl)-2-(((5-(tert-butyl)-6-chloro-1H-indazol-3-yl)amino)methyl)-1-methyl-4-phenyl-1H-imidazole-5-carboxamide, reference compound] as the molecule, how does the “binding rate for G12C K-Ras4B (1-169)” value read?
**A.** E (a binding rate of less than 20% is rated “E.”)

**Q.** How did the “binding rate for G12C K-Ras4B (1-169)” value turn out when `C=CC(=O)N1C[C@@H](CC)[C@@H](NC(=O)c2c(C)nc(CNc3n[nH]c4cc(Cl)c(C(C)(C)C)cc34)n2C)C1` [Example 69, N-((3R,4R)-1-acryloyl-4-ethylpyrrolidin-3-yl)-2-(((5-(tert-butyl)-6-chloro-1H-indazol-3-yl)amino)methyl)-1,4-dimethyl-1H-imidazole-5-carboxamide] was run?
**A.** E (a binding rate of less than 20% is rated “E.”)

**Q.** How did the “binding rate for G12C K-Ras4B (1-169)” value turn out when `C=CC(=O)N1CC[C@@H](N(C)C(=O)c2cnc(CNc3n[nH]c4cc(Cl)c(C(C)(C)C)cc34)n2C)C1` [Example 77, (R)—N-(1-acryloylpyrrolidin-3-yl)-2-(((5-(tert-butyl)-6-chloro-1H-indazol-3-yl)amino)methyl)-N,1-dimethyl-1H-imidazole-5-carboxamide] was run?
**A.** C (a binding rate of 40% or more and less than 60% is rated “C,”)

**Q.** With `C=CC(=O)N1CC(NC(=O)c2c(Cl)nc(CNc3n[nH]c4cc(Cl)c(C(C)(C)C)cc34)n2CCCC)C1` [Example 87, N-(1-acryloylazetidin-3-yl)-1-butyl-2-(((5-(tert-butyl)-6-chloro-1H-indazol-3-yl)amino)methyl)-4-chloro-1H-imidazole-5-carboxamide] as the molecule, how does the “binding rate for G12C K-Ras4B (1-169)” value read?
**A.** A (a binding rate of 80% or more is rated “A,”)

**Q.** With `C=CC(=O)N1CC(NC(=O)c2cnc(CNc3n[nH]c4cc(Cl)c(CC)cc34)n2C)C1` [Example 39, N-(1-acryloylazetidin-3-yl)-2-(((6-chloro-5-ethyl-1H-indazol-3-yl)amino)methyl)-1-methyl-1H-imidazole-5-carboxamide] as the molecule, how does the “binding rate for G12C K-Ras4B (1-169)” value read?
**A.** C (a binding rate of 40% or more and less than 60% is rated “C,”)

**Q.** `C=CC(=O)N1CC(NC(=O)c2cc(CNc3n[nH]c4cc(Cl)c(C(C)(C)C)cc34)nn2C)C1` [Example 9, N-(1-acryloylazetidin-3-yl)-3-(((5-(tert-butyl)-6-chloro-1H-indazol-3-yl)amino)methyl)-1-methyl-1H-pyrazole-5-carboxamide] was tested. Which “binding rate for G12C K-Ras4B (1-169)” value did it give?
**A.** D (a binding rate of 20% or more and less than 40% is rated “D,”)

**Q.** How did the “binding rate for G12C K-Ras4B (1-169)” value turn out when `C=CC(=O)N1CC(NC(=O)c2cnc(CNc3n[nH]c4cc(Cl)c(C(C)(C)C)cc34)s2)C1` [Example 8, N-(1-acryloylazetidin-3-yl)-2-(((5-(tert-butyl)-6-chloro-1H-indazol-3-yl)amino)methyl)thiazole-5-carboxamide] was run?
**A.** B (a binding rate of 60% or more and less than 80% is rated “B,”)

**Q.** `C=CC(=O)N1CC(NC(=O)c2cnc(CNc3n[nH]c4cc(Cl)c(C(C)(C)C)cc34)n2C)C1` [Example 1, N-(1-acryloylazetidin-3-yl)-2-(((5-(tert-butyl)-6-chloro-1H-indazol-3-yl)amino)methyl)-1-methyl-1H-imidazole-5-carboxamide] was tested. Which “binding rate for G12C K-Ras4B (1-169)” value did it give?
**A.** A (a binding rate of 80% or more is rated “A,”)
